# According to patent US8012939B2 (Tibotec Pharmaceuticals Ltd. Co, priority 2005, dated 2011):
# Where two headings read alike, the source gives them in different places.
# Tests used:
# [1] = rcm bond, Hoveyda-Grubbs 1st generation catalyst, 1,2-dichloroethane, 70.0 °C
# [2] = tested on: HCV replicons (HCV type 1b, Huh-7 luc/neo cells); assay: Replicon assay (Huh-Luc cells, luciferase read-out); format: cell-based; settings: Hepatitis C virus, Huh-7, 72 h
# From the text: The compounds of formula (I) were examined for activity in the inhibition of HCV RNA replication in a cellular assay. […] The cellular assay was based on a bicistronic expression construct, as described by Lohmann et al. (1999) Science vol. 285 pp. 110-113 with modifications described by Krieger et al. (2001) Journal of Virology 75: 4614-4624, in a multi-target screening strategy. In essence, the method was as follows.
# The assay utilized the stably transfected cell line Huh-7 luc/neo (hereafter referred to as Huh-Luc). This cell line harbors an RNA encoding a bicistronic expression construct comprising the wild type NS3-NS5B regions of HCV type 1b translated from an Internal Ribosome Entry Site (IRES) from encephalomyocarditis virus (EMCV), preceded by a reporter portion (FfL-luciferase), and a selectable marker portion (neo^R, neomycine phosphotransferase). The construct is bordered by 5′ and 3′ NTRs (non-translated regions) from HCV type 1b. Continued culture of the replicon cells in the presence of G418 (neo^R) is dependent on the replication of the HCV RNA. The stably transfected replicon cells that express HCV RNA, which replicates autonomously and to high levels, encoding inter alia luciferase, are used for screening the antiviral compounds.
# The replicon cells were plated in 384 well plates in the presence of the test and control compounds which were added in various concentrations. Following an incubation of three days, HCV replication was measured by assaying luciferase activity (using standard luciferase assay substrates and reagents and a Perkin Elmer ViewLux™ ultraHTS microplate imager). Replicon cells in the control cultures have high luciferase expression in the absence of any inhibitor. The inhibitory activity of the compound on luciferase activity was monitored on the Huh-Luc cells, enabling a doseresponse curve for each test compound.
# [3] = target: T1, HCV NS3/4A protease complexes (full-length hepatitis C NS3 protease enzyme with NS4A cofactor) (Hepatitis C virus genotype 1a, UniProt P27958); assay: Inhibition assay (enzymatic assay, depsipeptide substrate hydrolysis); format: biochemical; settings: enzyme 1 nM, 25 μM NS4A cofactor, 0.5 μM substrate, 30° C., pH 7.5, model for competitive inhibition
# T1 construct: full-length hepatitis C NS3 protease enzyme
# T1 sequence (P27958 1027-1657, one chain of several): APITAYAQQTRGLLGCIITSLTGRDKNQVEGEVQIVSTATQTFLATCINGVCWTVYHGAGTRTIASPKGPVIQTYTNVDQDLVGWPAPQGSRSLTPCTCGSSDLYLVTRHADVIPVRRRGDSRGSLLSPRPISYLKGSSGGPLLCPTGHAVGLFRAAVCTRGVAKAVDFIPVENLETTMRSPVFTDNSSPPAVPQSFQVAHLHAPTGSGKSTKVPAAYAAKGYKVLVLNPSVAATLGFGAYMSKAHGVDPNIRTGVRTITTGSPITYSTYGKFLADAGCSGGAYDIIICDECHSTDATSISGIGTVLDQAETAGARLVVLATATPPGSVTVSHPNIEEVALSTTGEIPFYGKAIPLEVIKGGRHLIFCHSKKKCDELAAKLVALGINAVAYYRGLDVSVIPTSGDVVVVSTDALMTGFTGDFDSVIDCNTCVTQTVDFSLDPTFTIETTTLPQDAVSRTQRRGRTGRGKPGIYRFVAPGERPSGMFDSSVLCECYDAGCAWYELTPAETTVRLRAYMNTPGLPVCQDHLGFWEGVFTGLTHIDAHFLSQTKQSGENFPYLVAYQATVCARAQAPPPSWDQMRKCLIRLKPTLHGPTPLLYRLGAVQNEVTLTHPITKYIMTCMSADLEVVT
# Description: [Landro, 1997 #Biochem 36 9340-9348]. […] The solutions were stored at −20° C. between measurements.
# [Liu, 1999 Analytical Biochemistry 267 331-335].
# [4] = Huh-Luc cells, incubation of three days, luciferase activity
smiles,measurement,setting,value
CCOC(=O)C12CC1C=CCCCCN(C)C(=O)C1CC(Oc3nc(-c4nc(C5CC5)cs4)cc4cc(OC)ccc34)CC1C(=O)N2 (stereo not drawn),"ring closure, yield of all isomers","[1]; from C=CCCCCN(C)C(=O)C1CC(Oc2nc(-c3nc(C4CC4)cs3)cc3cc(OC)ccc23)CC1C(=O)NC1(C(=O)OCC)CC1C=C, 0.8 mM, 12.0 h",85%
CCOC(=O)C12CC1C=CCCCCN(C)C(=O)N1CC(OC(=O)c3ccc([N+](=O)[O-])cc3)CC1C(=O)N2 (stereo not drawn),"ring closure, yield of all isomers","[1]; from C=CCCCCN(C)C(=O)N1CC(OC(=O)c2ccc([N+](=O)[O-])cc2)CC1C(=O)NC1(C(=O)OCC)CC1C=C, 1.64 mM, 20.0 h",51%
CCOC(=O)C12CC1C=CCCCCN(C)C(=O)N1CC(Oc3nc(Cl)cc4cc(OC)ccc34)CC1C(=O)N2 (stereo not drawn),"ring closure, yield of all isomers","[1]; from C=CCCCCN(C)C(=O)N1CC(Oc2nc(Cl)cc3cc(OC)ccc23)CC1C(=O)NC1(C(=O)OCC)CC1C=C, 2.17 mM, 20.0 h",58%
CCOC(=O)C12CC1C=CCCCCN(C)C(=O)N1CC(Oc3ncc(Br)c4cc(OC)ccc34)CC1C(=O)N2 (stereo not drawn),"ring closure, yield of all isomers","[1]; from C=CCCCCN(C)C(=O)N1CC(Oc2ncc(Br)c3cc(OC)ccc23)CC1C(=O)NC1(C(=O)OCC)CC1C=C, 1.55 mM, 20.0 h",38%
"COc1ccc2c(O[C@@H]3C[C@H]4C(=O)N[C@]5(C(=O)NS(=O)(=O)C6CC6)C[C@H]5/C=C\CCCCN(C)C(=O)N4C3)nccc2c1Br [Compound 51, N-[17-(5-bromo-6-methoxyisoquinolin-1-yloxy)-13-methyl-2,14-dioxo-3,13,15-triaza-tricyclo[13.3.0.0^4,6]octadec-7-ene-4-carbonyl](cyclopropyl)sulfonamide]",EC50,[2]; [4],58 nM
same,Ki,[3],1.7 nM
"COc1ccc2c(O[C@@H]3C[C@H]4C(=O)N[C@]5(C(=O)O)C[C@H]5/C=C\CCCCN(C)C(=O)N4C3)nccc2c1 [Compound 55, 17-(6-methoxyisoquinolin-1-yloxy)-13-methyl-2,14-dioxo-3,13,15-triaza-tricyclo[13.3.0.0^4,6]octadec-7-ene-4-carboxylic acid]",EC50,[2]; [4],> 100000 nM
same,Ki,[3],> 1000 nM
"COc1ccc2c(O[C@@H]3C[C@H]4C(=O)N[C@]5(C(=O)NS(=O)(=O)C6CC6)C[C@H]5/C=C\CCCCN(C)C(=O)N4C3)nc(-c3ccccc3)cc2c1 [Compound 56, N-[17-(3-phenyl-6-methoxyisoquinolin-1-yloxy)-13-methyl-2,14-dioxo-3,13,15-triaza-tricyclo[13.3.0.0^4,6]octadec-7-ene-4-carbonyl](cyclopropyl) sulfonamide]",EC50,[2],1030 nM
same,Ki,[3],1.1 nM
"COc1ccc2c(O[C@@H]3C[C@H]4C(=O)N[C@]5(C(=O)O)C[C@H]5/C=C\CCCCN(C)C(=O)N4C3)nc(-c3ccc(OC(F)(F)F)cc3)cc2c1 [Compound 57, 17-(3-(4-trifluoromethoxyphenyl)-6-methoxyisoquinolin-1-yloxy)-13-methyl-2,14-dioxo-3,13,15-triaza-tricyclo[13.3.0.0^4,6]octadec-7-ene-4-carboxylic acid]",EC50,[2]; [4],8090 nM
same,Ki,[3],210 nM
"COc1ccc2c(O[C@@H]3C[C@H]4C(=O)N[C@]5(C(=O)O)C[C@H]5/C=C\CCCCN(C)C(=O)N4C3)nc(-n3cccn3)cc2c1 [Compound 67, 17-(3-pyrazol-1-yl-6-methoxyisoquinolin-1-yloxy)-13-methyl-2,14-dioxo-3,13,15-triaza-tricyclo[13.3.0.0^4,6]octadec-7-ene-4-carboxylic acid]",EC50,[2]; [4],> 10000 nM
same,Ki,[3],> 1000 nM
"COc1ccc2c(O[C@@H]3C[C@H]4C(=O)N[C@]5(C(=O)NS(=O)(=O)C6CC6)C[C@H]5/C=C\CCCCN(C)C(=O)N4C3)nc(-n3cccn3)cc2c1 [Compound 68, N-[17-(3-pyrazol-1-yl-6-methoxyisoquinolin-1-yloxy)-13-methyl-2,14-dioxo-3,13,15-triaza-tricyclo[13.3.0.0^4,6]octadec-7-ene-4-carbonyl](cyclopropyl)sulfonamide]",EC50,[2]; [4],165 nM
same,Ki,[3],2.5 nM
"COc1ccc2c(O[C@@H]3C[C@H]4C(=O)N[C@]5(C(=O)NS(=O)(=O)C6CC6)C[C@H]5/C=C\CCCCN(C)C(=O)N4C3)nc(-c3nc(C(C)C)cs3)cc2c1 [Compound 70, N-[17-[3-(4-isopropylthiazol-2-yl)-6-methoxyisoquinolin-1-yloxy]-13-methyl-2,14-dioxo-3,13,15-triaza-tricyclo[13.3.0.0^4,6]octadec-7-ene-4-carbonyl](cyclopropyl)sulfonamide]",EC50,[2]; [4],6730 nM
same,Ki,[3],33 nM
